Article PMC7232187, “High-Throughput Screening of the ReFRAME Library Identifies Potential Drug Repurposing Candidates for Trypanosoma cruzi” (Microorganisms, 2020)
Read-outs that look alike come from different tables or passages of the source.

What was measured:
[1] = Host cell toxicity by nuclei counting in the phenotypic high-content imaging assay; settings: mouse
Description: C2C12 mouse myoblasts (ATCC CRL-1772) and CA-I/72 T. cruzi (kindly donated by J. Dvorak, NIH) were cultured in Dulbecco’s Modified Eagle Medium (Invitrogen, Carlsbad, CA, USA), supplemented with 5% fetal bovine serum (Sigma Aldrich, St. Louis, MO, USA) and 1% penicillin-streptomycin (Invitrogen, Carlsbad, CA, USA) at 37 °C and 5% CO2 essentially as described. Passaging of CA-I/72 T. cruzi was conducted weekly via co-culture with C2C12 host cells.
Compounds from the ReFRAME library, benznidazole (Sigma Alderich, St. Louis, MO, USA) and DMSO (Sigma Alderich, St. Louis, MO, USA), were transferred to black 1536-well plates (Greiner Bio One, Kremsmünster, Austria) with clear bottoms using an Acoustic Transfer System (ATS) instrument (EDC Biosystems, Fremont, CA, USA). C2C12 cells were seeded at a density of 100 cells per well, and CA-I/72 T. cruzi parasites were seeded at a density of 1500 cells per well, using a Multidrop Combi liquid handler (Thermo Scientific, Waltham, MA, USA). Plates were incubated at 37 °C and 5% CO2 for 72 h in humidified trays to reduce edge effect. Following this incubation, paraformaldehyde (4% final concentration) in 1× phosphate buffered saline (PBS, Invitrogen, 10010023) was used to fix the cells for 1 h. The cells were then subsequently treated with 5 µg/mL DAPI staining solution (Sigma Aldrich, D9542) for 1 h. Next, the plates were imaged using an ImageXpress Micro XLS automated high-content imager (Molecular Devices, San Jose, CA, USA), using the 10× fluorescence objective. Images were analyzed automatically using a custom image analysis module.
Compounds from the ReFRAME library were pre-spotted on 1536 clear-bottom black well plates in 100% dimethylsulfoxide (DMSO) for a final concentration of 10 µM in 10 µL final volume (and 0.1% DMSO final concentration). C2C12 mouse myoblasts and CA-I/72 strain T. cruzi trypomastigotes were added to the plate in a 1:15 infection ratio and incubated for 72 h at 37 °C and 5% CO2. Cells were then fixed with 4% paraformaldehyde (final concentration), and stained with 5 µg/mL of 4’,6-diamidino-2-phenylindole (DAPI) to highlight the nuclei from the host cells and parasites. Using an ImageXpress Micro XLS automated microscope (10× magnification setting), fluorescence images of C2C12 and T. cruzi amastigote nuclei were acquired for each well, and the number of host cell nuclei and amastigote nuclei were automatically determined using a custom image analysis module as previously described (Figure 1). Parasite amastigote nuclei were selectively counted over trypomastigote nuclei, via distance gating of parasitic nuclei distance from host cell nuclei in the microscopy images.
Infection levels were calculated as a ratio of the number of T. cruzi amastigotes per C2C12 host cell, as determined by nuclei counting. Compound toxicity was determined by dividing the number of host cell nuclei in a drug-treated well by the average of the vehicle controls. For both infection ratios and cell viability ratios, values were normalized to the vehicle controls to determine percent activity and toxicity, respectively. Control wells containing uninfected C2C12 cells, infected C2C12 cells with 0.1% DMSO, and infected C2C12 cells with 0.1% DMSO and 50 µM benznidazole were prepared in each plate for data normalization. […] Hit selection cutoffs for the primary screen were set at 70% antiparasitic activity (70% parasite reduction compared to untreated controls) and 50% host cell viability at 10 µM compound compared to untreated controls (represents approximately three standard deviations from the average of the untreated controls).

CA-I/72 T. cruzi = assay: Phenotypic high-content imaging assay, intracellular T. cruzi amastigotes in C2C12 host cells; assay type: cell-based, Trypanosoma cruzi; settings: for Selectivity Index (SI): SI = CC50 (C2C12) / EC50 (T. cruzi CA-I/72); for EC50: Trypanosoma cruzi, read-out: EC50 CA-I/72 T. cruzi
Description: C2C12 mouse myoblasts (ATCC CRL-1772) and CA-I/72 T. cruzi (kindly donated by J. Dvorak, NIH) were cultured in Dulbecco’s Modified Eagle Medium (Invitrogen, Carlsbad, CA, USA), supplemented with 5% fetal bovine serum (Sigma Aldrich, St. Louis, MO, USA) and 1% penicillin-streptomycin (Invitrogen, Carlsbad, CA, USA) at 37 °C and 5% CO2 essentially as described [11]. Passaging of CA-I/72 T. cruzi was conducted weekly via co-culture with C2C12 host cells.
Compounds from the ReFRAME library, benznidazole (Sigma Alderich, St. Louis, MO, USA) and DMSO (Sigma Alderich, St. Louis, MO, USA), were transferred to black 1536-well plates (Greiner Bio One, Kremsmünster, Austria) with clear bottoms using an Acoustic Transfer System (ATS) instrument (EDC Biosystems, Fremont, CA, USA). C2C12 cells were seeded at a density of 100 cells per well, and CA-I/72 T. cruzi parasites were seeded at a density of 1500 cells per well, using a Multidrop Combi liquid handler (Thermo Scientific, Waltham, MA, USA). Plates were incubated at 37 °C and 5% CO2 for 72 h in humidified trays to reduce edge effect. Following this incubation, paraformaldehyde (4% final concentration) in 1× phosphate buffered saline (PBS, Invitrogen, 10010023) was used to fix the cells for 1 h. The cells were then subsequently treated with 5 µg/mL DAPI staining solution (Sigma Aldrich, D9542) for 1 h. Next, the plates were imaged using an ImageXpress Micro XLS automated high-content imager (Molecular Devices, San Jose, CA, USA), using the 10× fluorescence objective. Images were analyzed automatically using a custom image analysis module [9, 11].
Compounds from the ReFRAME library were pre-spotted on 1536 clear-bottom black well plates in 100% dimethylsulfoxide (DMSO) for a final concentration of 10 µM in 10 µL final volume (and 0.1% DMSO final concentration). C2C12 mouse myoblasts and CA-I/72 strain T. cruzi trypomastigotes were added to the plate in a 1:15 infection ratio and incubated for 72 h at 37 °C and 5% CO2. Cells were then fixed with 4% paraformaldehyde (final concentration), and stained with 5 µg/mL of 4’,6-diamidino-2-phenylindole (DAPI) to highlight the nuclei from the host cells and parasites. Using an ImageXpress Micro XLS automated microscope (10× magnification setting), fluorescence images of C2C12 and T. cruzi amastigote nuclei were acquired for each well, and the number of host cell nuclei and amastigote nuclei were automatically determined using a custom image analysis module as previously described [9, 10, 11] […] Parasite amastigote nuclei were selectively counted over trypomastigote nuclei, via distance gating of parasitic nuclei distance from host cell nuclei in the microscopy images.

[2] = C2C12 mouse myoblasts co-cultured with CA-I/72 T. cruzi
[3] = intracellular amastigotes in C2C12, 72 h, 10-point 3-fold dose response in duplicate, +/- SE

N#Cc1ccc(Cn2cncc2CN2CCN(c3cccc(Cl)c3)C(=O)C2)cc1Oc1ccccc1 [Prenyl-IN-1]
CC50 at 72 h [1, 2]: 0.182 µM | Selectivity Index (SI) (CA-I/72 T. cruzi): 10 | EC50 (CA-I/72 T. cruzi; [3]): 0.018 µM

COc1ccccc1N1CCN(CCCCn2c(=O)sc3cc(CCN4CCC(C(=O)c5ccc(F)cc5)CC4)ccc32)CC1 [3-[4-[4-(2-Methoxyphenyl)piperazine-1-yl]butyl]-6-[2-[4-(4-fluorobenzoyl)piperidine-1-yl]ethyl]benzothiazole-2(3H)-one]
CC50 at 72 h [1, 2]: 3.19 µM | Selectivity Index (SI) (CA-I/72 T. cruzi): 145 | EC50 (CA-I/72 T. cruzi; [3]): 0.022 µM

Cc1cccc2nc3cccc(C(=O)NCCNCCNCCNC(=O)c4cccc5nc6cccc(C)c6nc45)c3nc12 [XR 5944]
CC50 at 72 h [1, 2]: 0.046 µM | Selectivity Index (SI) (CA-I/72 T. cruzi): 13 | EC50 (CA-I/72 T. cruzi; [3]): 0.0035 µM

C=C(NNC(=S)NNC(=S)Nc1ccccc1Cl)c1ccccn1 [348U87, 2-acetylpyridine 5-[(2-chloroanilino)-thiocarbonyl]-thiocarbonohydrazone]
CC50 at 72 h [1, 2]: 0.815 µM | Selectivity Index (SI) (CA-I/72 T. cruzi): 1294 | EC50 (CA-I/72 T. cruzi; [3]): 0.00063 µM

COc1cc2c3c(n(CCCNCCO)c(=O)c2cc1OC)-c1cc2c(cc1C3=O)OCO2 [NSC-706744]
CC50 at 72 h [1]: 0.094 µM | Selectivity Index (SI) (CA-I/72 T. cruzi): 214 | EC50 (CA-I/72 T. cruzi; C2C12, 72 h): 0.00044 µM

O=P(O)(O)C(NC1CCCCCC1)P(=O)(O)O [Incadronate Disodium, incadronate disodium]
CC50 at 72 h [1]: > 10 µM | Selectivity Index (SI) (CA-I/72 T. cruzi): >20 | EC50 (CA-I/72 T. cruzi; [3]): 0.48 µM

C=CC(=O)N1CC[C@@H](Oc2nc(Nc3ccc(N4CCC(N5CCN(C)CC5)CC4)cc3)c(C(N)=O)nc2CC)C1 [ASP-8273, naquotinib]
CC50 at 72 h [1, 2]: 0.515 µM | Selectivity Index (SI) (CA-I/72 T. cruzi): 191 | EC50 (CA-I/72 T. cruzi; [3]): 0.0027 µM
